{"source": "patent US9415047B2", "about": "“Use of benzo five-membered nitrogen heterocyclic piperazine or piperidine derivatives” (Liaoning Emmy Biological Pharmaceutical Co., Ltd., priority 2012, dated 2016)", "key": {"SD rats": {"test_system": "SD rats", "assay": "Effects on blood pressure of SD rats anesthetized with urethane", "type": "in vivo", "details": "for diastolic blood pressure (DBP) / mean artery pressure (MAP) / systolic blood pressure (SBP): 1.5 mg/kg gastric gavage, n = 5", "method": "(§1) Four SD rats were anesthetized with urethane ([…]), after vital signs became stable, blood pressure was measured by common carotid intubation. After blood pressure became stable, compound II-2 was administered at 4.0 mg/kg via gastric gavage, blood pressure changes with time were observed and recorded.\nas §1, with “Five” for “Four”, “rats (provided by Experimental Animal Center, China Medical University)” for “rats”, “II-85” for “II-2”, “1.5” for “4.0”"}, "Calcium Channel (Ca^2+)": {"test_system": "Calcium Channel (Ca^2+)", "assay": "Antagonism of accumulative constriction of rabbit aorta by CaCl2", "details": "calcium free high kalium depolarization", "description": "(§2) Rabbits were hit to be dizzy, with thoracic cavity quickly cut open, descending aorta exposed, connective tissues and surrounding fatty tissues (for hydroxytryptamine receptor antagonism test, endothelia should be removed with smooth stainless steel rod) removed, the aorta was cut into 3-5 mm vascular rings which were penetrated together with a steel wire with one end fixed on ventilation hook, another end on pressure tonotransducer. The aorta rings were put into a bath tube with 20 ml of nutritional solution, and the tension changes were recorded by using the recorder. The temperature of bath tube was maintained at 37±0.5° C., and mixed gas (95% O2+5% CO2) was ventilated at a rate of I-2 bubbles/second. The initial load of the sample was 1.5 g, nutritional solution was changed for every 20 min. The sample was balanced for 2 hours, and the experiment would be started when baseline became stable.\nAfter sample tension became stable, calcium K-H solution was used to flush the sample for 3 times, and incubated with calcium free K-H solution for 40 min. Calcium free high kalium solution was added into the sample for depolarization for 20 min, then CaCl2 (10^−6-10^−2 mol/L) was added into bath tube till maximal response was achieved, and then waveform was recorded. Then K-H solution was used to flush the sample repeatedly, the K-H solution was changed for every 20 min, and the sample was balanced for 60 min. […]\nAfter sample tension became stable, calcium K-H solution was used to flush the sample for 3 times, and incubated with calcium free K-H solution for 40 min. Calcium free high kalium solution was added into the sample for depolarization for 20 min, then CaCl2 (10^−6-10^−2 mol/L) was added into bath tube till maximal response was achieved, and then waveform was recorded. […] Calcium free high kalium solution was added into the sample for depolarization for 20 min, then amlodipine (10^−7 mol/L) was added into bath tube, which was incubated for 15 min, then CaCl2 (10^−6-10^−2 mol/L) was added by using the same method till maximal response was achieved, and then waveform was recorded. […]"}, "[1]": {"test_system": "NA constricted rabbit aorta", "assay": "Relaxing effects on vascular smooth muscle constricted by noradrenaline (NA) in vitro", "details": "Oryctolagus cuniculus; relaxation of rabbit aorta constricted by noradrenaline (10^−5 mol/L); mean±SEM, n=5", "how_it_was_run": "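Rabbit aortic rings in K-H solution, pre-tested with adrenaline (10^−5 mol/L), washed and re-equilibrated 60 min, then constricted with noradrenaline (10^−5 mol/L). Compounds added cumulatively from 1×10^−10 up to 1×10^−2 or 1×10^−3 mol/L; relaxation expressed as % of maximal relaxation versus −log concentration (mean±SEM, n=5).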"}, "Kunming mice": {"test_system": "Kunming mice", "assay": "Marrow micronucleus test on mice", "type": "in vivo", "method": "Ten Kunming mice (Experimental Animal Center, China Medical University), half male and half female, were used. Compound II-2 was administered via gastric gavage at 120 mg/kg/day, and II-85 was administered to 74 mg/kg/day. The drug was administered for 4 days continuously. Marrow micronucleus test was performed on day 5.\nMice in positive control group were administered cyclophosphane at 60 mg/kg/day. Mice in negative control group were administered normal saline at 0.1 ml/10 g/day. The drug was administered for 4 days continuously. Marrow micronucleus test was performed on day 5.\nThe mice were killed by snapping neck, and then femur and sternum were excised, with blood and muscles removed, epiphysis cut off. Then marrow from sternum was squeezed to clean glassslide with bovine serum by using a pair of hemostatic forceps, or marrow on femur was flushed directly with bovine serum onto clean glassslide. Then the substance on glassslide were mixed well and smeared. Then the prepared and dried marrow smears were put into staining tank with methanol, fixed for 15 min, picked out to dry in the open air. After marrow smears were dried, it would be stained in freshly prepared Giemsa solution (1 volume of Giemsa stock solution and 9 volumes of pH 6.8 phosphate buffer) for 10 min, staining solution was flushed away with little stream. Then the smear was dried in the open air and observed under a microscope."}, "[2]": {"test_system": "AD constricted rabbit aorta", "assay": "Relaxing effects on vascular smooth muscle constricted by adrenaline hydrochloride (AD) in vitro", "details": "Oryctolagus cuniculus; relaxation of rabbit aorta constricted by adrenaline (10^−5 mol/L); mean±SEM, n=5", "how_it_was_run": "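Rabbit aortic strips in K-H solution precontracted with adrenaline hydrochloride (10^−5 mol/L) after a reproducible second contraction; compounds added cumulatively over ranges from 1×10^−10 up to 1×10^−2 mol/L depending on the compound series. Relaxation expressed as % of maximal relaxation versus −log concentration, mean±SEM, n=5.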"}, "[3]": {"assay": "Experiment on acute toxicity", "details": "both sexes, Kunming, mouse, in vivo, mice", "from_the_text": "Kunming mice (Experimental Animal Center, China Medical University) were used, half male and half female, 18-22 g, brief probability unit method was used to test the acute toxicity of the compound.\nTen Kunming mice (Experimental Animal Center, China Medical University) were used, half male and half female, 18-22 g, brief probability unit method was used to test the acute toxicity of the compound."}, "5-HT2A receptor": {"molecular_target": "5-HT2A receptor (Oryctolagus cuniculus, UniProt G1SYA7)", "sequence (G1SYA7 1-469)": "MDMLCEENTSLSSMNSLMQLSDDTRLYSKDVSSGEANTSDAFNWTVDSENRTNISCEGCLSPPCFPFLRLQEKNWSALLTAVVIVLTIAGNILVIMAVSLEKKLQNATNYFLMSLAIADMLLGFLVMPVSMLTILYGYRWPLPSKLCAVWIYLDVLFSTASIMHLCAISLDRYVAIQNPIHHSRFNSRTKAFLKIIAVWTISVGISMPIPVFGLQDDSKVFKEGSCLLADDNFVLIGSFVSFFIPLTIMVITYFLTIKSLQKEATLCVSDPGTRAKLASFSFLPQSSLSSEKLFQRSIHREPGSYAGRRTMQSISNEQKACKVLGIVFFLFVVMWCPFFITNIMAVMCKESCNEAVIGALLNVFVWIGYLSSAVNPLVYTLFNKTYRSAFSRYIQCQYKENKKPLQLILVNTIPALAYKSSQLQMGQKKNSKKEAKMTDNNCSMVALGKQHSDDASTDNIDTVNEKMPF", "assay": "Antagonism of accumulative constriction of rabbit aorta by 5-HT", "description": "as §2\nAfter sample tension became stable, a piece of waveform was recorded, 5-HT (10^−7-3×10^−4 mol/L) was added into the bath tube until maximal response, then waveform was recorded. […] 5-HT was also added by using the same method 20 min later. The maximal response was considered 100%, 5-HT constriction percentage was used as Y axis, negative logarithms of different concentrations of 5-HT were used as X axis to draw dose effective curve.\nAfter sample tension became stable, a piece of waveform was recorded, 5-HT (10^−8-10^−3 mol/L) was added into the bath tube until maximal response, then waveform was recorded. […] 5-HT was also added by using the same method 20 min later. The maximal response was considered 100%, 5-HT constriction percentage was used as Y axis, negative logarithms of different concentrations of 5-HT were used as X axis to draw dose effective curve (data were expressed in mean±SEM ( ? ), *P<0.05, **P<0.01, n=7).\nAfter sample tension became stable, a piece of waveform was recorded, 5-HT (10^−8-3×10^−4 mol/L) was added into the bath tube until maximal response, then waveform was recorded. […] 5-HT was also added by using the same method 20 min later. […]"}, "α1 receptor": {"test_system": "α1 receptor", "assay": "Antagonism of accumulative constriction of rabbit aorta by phenylephrine (α-receptor agonist)", "details": "agonist (R)-phenylephrine", "method": "PE was also added by using the same method 15 min later. […] The curve was shown in FIG. 21 after positive drug doxazosine mesylate (10^−7 mol/L) was added."}}, "note": "“Also recorded” adds a separate entry of the source.", "data": [{"smiles": "Fc1ccc2c(C3CCN(CCCn4nnc5ccccc54)CC3)noc2c1", "note": "[II-85, N-(3-(1H-benzotriazole-1-yl)propyl)4-(3-(6-fluorobenzisoxazolyl))piperidine]", "values": [{"measurement": "diastolic blood pressure (DBP)", "setting": "SD rats; 0 min post dosing", "result": 103.06, "unit": "mmHg"}, {"measurement": "mean artery pressure (MAP)", "setting": "SD rats; 0 min post dosing", "result": 116.63, "unit": "mmHg"}, {"measurement": "systolic blood pressure (SBP)", "setting": "SD rats; 0 min post dosing", "result": 143.77, "unit": "mmHg"}, {"measurement": "diastolic blood pressure (DBP)", "setting": "SD rats; 15 min post dosing", "result": 75.36, "unit": "mmHg"}, {"measurement": "mean artery pressure (MAP)", "setting": "SD rats; 15 min post dosing", "result": 91.98, "unit": "mmHg"}, {"measurement": "systolic blood pressure (SBP)", "setting": "SD rats; 15 min post dosing", "result": 125.22, "unit": "mmHg"}, {"measurement": "diastolic blood pressure (DBP)", "setting": "SD rats; 30 min post dosing", "result": 68.68, "unit": "mmHg"}, {"measurement": "mean artery pressure (MAP)", "setting": "SD rats; 30 min post dosing", "result": 84.42, "unit": "mmHg"}, {"measurement": "systolic blood pressure (SBP)", "setting": "SD rats; 30 min post dosing", "result": 115.90, "unit": "mmHg"}, {"measurement": "diastolic blood pressure (DBP)", "setting": "SD rats; 60 min post dosing", "result": 75.49, "unit": "mmHg"}, {"measurement": "mean artery pressure (MAP)", "setting": "SD rats; 60 min post dosing", "result": 91.24, "unit": "mmHg"}, {"measurement": "systolic blood pressure (SBP)", "setting": "SD rats; 60 min post dosing", "result": 122.75, "unit": "mmHg"}, {"measurement": "diastolic blood pressure (DBP)", "setting": "SD rats; 90 min post dosing", "result": 83.32, "unit": "mmHg"}, {"measurement": "mean artery pressure (MAP)", "setting": "SD rats; 90 min post dosing", "result": 97.37, "unit": "mmHg"}, {"measurement": "systolic blood pressure (SBP)", "setting": "SD rats; 90 min post dosing", "result": 125.48, "unit": "mmHg"}, {"measurement": "diastolic blood pressure (DBP)", "setting": "SD rats; 120 min post dosing", "result": 83.71, "unit": "mmHg"}, {"measurement": "mean artery pressure (MAP)", "setting": "SD rats; 120 min post dosing", "result": 96.77, "unit": "mmHg"}, {"measurement": "systolic blood pressure (SBP)", "setting": "SD rats; 120 min post dosing", "result": 122.89, "unit": "mmHg"}, {"measurement": "diastolic blood pressure (DBP)", "setting": "SD rats; 150 min post dosing", "result": 95.06, "unit": "mmHg"}, {"measurement": "mean artery pressure (MAP)", "setting": "SD rats; 150 min post dosing", "result": 108.73, "unit": "mmHg"}, {"measurement": "systolic blood pressure (SBP)", "setting": "SD rats; 150 min post dosing", "result": 136.08, "unit": "mmHg"}, {"measurement": "diastolic blood pressure (DBP)", "setting": "SD rats; 180 min post dosing", "result": 86.22, "unit": "mmHg"}, {"measurement": "mean artery pressure (MAP)", "setting": "SD rats; 180 min post dosing", "result": 100.11, "unit": "mmHg"}, {"measurement": "systolic blood pressure (SBP)", "setting": "SD rats; 180 min post dosing", "result": 127.90, "unit": "mmHg"}, {"measurement": "diastolic blood pressure (DBP)", "setting": "SD rats; 210 min post dosing", "result": 97.96, "unit": "mmHg"}, {"measurement": "mean artery pressure (MAP)", "setting": "SD rats; 210 min post dosing", "result": 111.02, "unit": "mmHg"}, {"measurement": "systolic blood pressure (SBP)", "setting": "SD rats; 210 min post dosing", "result": 137.13, "unit": "mmHg"}, {"measurement": "diastolic blood pressure (DBP)", "setting": "SD rats; 240 min post dosing", "result": 102.84, "unit": "mmHg"}, {"measurement": "mean artery pressure (MAP)", "setting": "SD rats; 240 min post dosing", "result": 115.95, "unit": "mmHg"}, {"measurement": "systolic blood pressure (SBP)", "setting": "SD rats; 240 min post dosing", "result": 142.19, "unit": "mmHg"}, {"measurement": "time until blood pressures recovered to those before drug dosing", "setting": "SD rats; anesthetized SD rats, gastric gavage", "result": 6, "unit": "h"}, {"measurement": "oral absorption", "setting": "SD rats; in vivo bulk testing on rats", "result": "good oral absorption"}, {"measurement": "hypotensive effects", "setting": "SD rats; rats, gastric gavage", "result": "obvious hypotensive effects; also recorded: good hypotensive effects"}, {"measurement": "PA2 value to resist constriction of rabbit aorta by CaCl2", "setting": "Calcium Channel (Ca^2+)", "result": "6.10±0.13"}, {"measurement": "EC50", "setting": "[1]", "result": 30.9, "unit": "nM"}, {"measurement": "marrow micronucleus test result", "setting": "Kunming mice", "result": "negative"}, {"measurement": "micronuclei cells in 1000 polychromatic erythrocytes", "setting": "Kunming mice; dosed 4 days, test on day 5, II-2 120, II-85 74, cyclophosphane 60 mg/kg/day", "result": "2.5±0.373", "unit": "%"}, {"measurement": "EC50", "setting": "[2]", "result": 50.1, "unit": "nM"}, {"measurement": "LD50", "setting": "[3]; intraperitoneal, intraabdominal injection", "result": 108, "unit": "mg/kg"}, {"measurement": "LD50", "setting": "[3]; po, gastric gavage", "result": 222, "unit": "mg/kg"}, {"measurement": "Kb", "setting": "5-HT2A receptor", "result": 0.871, "unit": "nM"}, {"measurement": "PA2 value to resist constriction of rabbit aorta by PE", "setting": "α1 receptor", "result": "8.62±0.11"}]}]}
